In this assay the test system is NF-κB activation pathway. Description: Real-time PCR (TaqMan/SYBR Green) of target gene mRNA in LPS-stimulated THP-1 cells with NF-κB pathway inhibitors. The settings on record: BMS-345541 10 μM, dexamethasone 100 nM; for MGC20791 expression (mRNA): all time points examined, FIG. 5D; for BCL-6 expression (mRNA): FIG. 5C. The class given is cell-based, human. As for the experimental part:
Poly (A)^+ mRNA was isolated from THP-1 cells that were either unstimulated, or stimulated with 100 ng/ml LPS for two hours in the presence and absence of BMS-205820 (2 uM) using the Fast Track isolation kit (Invitrogen, Carlsbad, Calif.) according to manufacturer's instructions. RNA quality and quantity were evaluated using UV spectrometry and capillary electrophoresis with the RNA 6000 Assay 10 (Agilent). First-strand cDNA was synthesized using the SuperScript™ First-Strand Synthesis System for RT-PCR (Invitrogen) according to manufacturer's instructions.
PCR reactions were performed in a total volume of 40 ul containing master mix (SYBR Green I dye, 50 mM Tris-Cl pH 8.3, 75 mM KCl, DMSO, Rox reference dye, 5 mM MgCl2, 2 mM dNTP, 1 unit Platinum Taq High Fidelity enzyme), 0.5 uM 15 each of forward and reverse gene-specific primers, and cDNA (8 ul of a 1:36 dilution of the first strand reaction mix). For tissue expression analyses, PCR reactions included 2 ul of cDNA derived from the Human Multiple Tissue cDNA panel I and Human Immune System MTC Panel (Clontech, Palo Alto, Calif.). The amplification program consisted of a 10 minute incubation at 95° C., followed by 40 cycles of incubations at 95° C. for 15 seconds, 60° C. for 1 minute. The amplification was followed by melting curve analysis at 60° C. to determine the specificity of the amplification reaction. The data were analyzed using the TaqMan 5700 software with the threshold value set to 0.5. The message levels of GAPDH were used to normalize the amounts of cDNA for each reaction.
PolyA+ mRNA was isolated from THP1 cells that were either unstimulated, stimulated with LPS for 2 hours, or stimulated with LPS for 2 hours in the presence of the peptide BMS-205820 (2 μM). In some experiments, THP-1 cells were stimulated with LPS in the presence of the glucocorticoid dexamethasone (100 nM), and the IKK-2 inhibitor, BMS-345541 (10 μM). RNA quality and quantity were evaluated using UV spectrometry and capillary electrophoresis with the RNA 6000 Assay by Agilent. Five-hundred nanograms of polyA RNA was used for first-strand cDNA synthesis using the SuperScript™ First-Strand Synthesis System for RT-PCR (Life Technologies) following the manufacturer's instructions with 250 ng of random hexamers.
PCR Reactions were performed in a total volume of 40 μl. The master mix contained SYBR Green I Dye, 50 mM Tris-HCl pH8.3, 75 mM KCl, DMSO, Rox reference dye, 5 mM MgCl2, 2 mM dNTP, Platinum Taq High Fidelity (1U/reaction), and 0.5 μM of each primer. The cDNA was diluted 1:36 from the synthesis reaction and eight microliters was used in each PCR reaction. For tissue distribution analyses, two microliters of cDNA from the Human Multiple Tissue and Human Immune System MTC cDNA panels were used as templates. The amplification program consisted of a 10 minute incubation at 95° C. followed by forty cycles of incubations at 95° C. for 15 seconds and 60° C. for 1 minute. […] A negative control without cDNA template was run to assess the overall specificity.
A relative value for the initial target concentration in each reaction was determined using the TaqMan 5700 software. The threshold value was set to 0.5 to obtain cycle threshold values that were used to assign relative message levels for each target. The message levels of GAPDH were determined for each cDNA sample and were used to normalize all other genes tested from the same cDNA sample.
A general note: Real-time PCR tracks product formation cycle by cycle.

Setting [1] is: THP-1 cells stimulated with LPS.

Structures are written as SMILES.

In the case of `Cc1ccc2nc(NCCN)c3ncc(C)n3c2c1` [BMS-345541], under setting [1], the “MGC20791 expression (mRNA)” value was “significantly inhibited” and the “BCL-6 expression (mRNA)” value is given as “significantly inhibited”. In addition, for the setting “THP-1 cells stimulated with LPS, all time points, FIG. 5A”, the “Cytokine-Inducible Kinase (CNK) expression (mRNA)” value is “potently inhibited”. Further, where the note is “THP-1 cells stimulated with LPS, each time point, FIG. 5B”, the “BCL-2 Like 11 expression (mRNA)” value is reported as “significantly inhibited expression at each time point below that detected in resting cells”. Also, the “Stat1 expression (mRNA)” value (THP-1 cells, 8 hours post LPS stimulation, FIG. 5E) is “significantly inhibited”.

Regarding `C[C@@H]1C[C@H]2[C@@H]3CCC4=CC(=O)C=C[C@]4(C)[C@@]3(F)[C@@H](O)C[C@]2(C)[C@@]1(O)C(=O)CO` [dexamethasone], under setting [1], the “MGC20791 expression (mRNA)” value is reported as “failed to inhibit” and the “BCL-6 expression (mRNA)” value was “failed to inhibit”.
